Measurements reported in article PMC12652222 (International Journal of Molecular Sciences, 2025).
Several values for one entry are separate records, joined by “and”; a condition that tells them apart may be missing. Equal values may be shown once.

Assays:
[1] = system: protein denaturation; assay: Protein denaturation inhibition (anti-arthritic); assay type: biochemical; design: concentration or dose not given beside the values; details: mean ± SE, n = 3
Experimental: (§1) Anti-arthritic activity was evaluated using diclofenac sodium as the reference drug. The inhibition percentage and IC50 were determined for protein denaturation and the proteinase enzyme.

[2] = Total antioxidant capacity (TAC); assay type: biochemical; details: mean ± SE, n = 3
Experimental: (§2) The antioxidant activity was assessed using the iron reducing power (IRP) and the total antioxidant capacity (TAC). Ascorbic acid served as a standard to calculate the inhibition percentages (%) and the median inhibitory concentration (IC50) of each tested compound against the following radicals: nitric oxide (NO), hydroxyl (OH), hydrogen peroxide (H2O2), ABTS [79], and DPPH [80].

[3] = molecular target: T1, α-amylase (Homo sapiens, UniProt P04746); assay: α-Amylase inhibition; assay type: biochemical; details: for inhibition at 20 µg/mL: read-out: α-Amylase Inhibition (%)
T1 sequence (P04746 16-511): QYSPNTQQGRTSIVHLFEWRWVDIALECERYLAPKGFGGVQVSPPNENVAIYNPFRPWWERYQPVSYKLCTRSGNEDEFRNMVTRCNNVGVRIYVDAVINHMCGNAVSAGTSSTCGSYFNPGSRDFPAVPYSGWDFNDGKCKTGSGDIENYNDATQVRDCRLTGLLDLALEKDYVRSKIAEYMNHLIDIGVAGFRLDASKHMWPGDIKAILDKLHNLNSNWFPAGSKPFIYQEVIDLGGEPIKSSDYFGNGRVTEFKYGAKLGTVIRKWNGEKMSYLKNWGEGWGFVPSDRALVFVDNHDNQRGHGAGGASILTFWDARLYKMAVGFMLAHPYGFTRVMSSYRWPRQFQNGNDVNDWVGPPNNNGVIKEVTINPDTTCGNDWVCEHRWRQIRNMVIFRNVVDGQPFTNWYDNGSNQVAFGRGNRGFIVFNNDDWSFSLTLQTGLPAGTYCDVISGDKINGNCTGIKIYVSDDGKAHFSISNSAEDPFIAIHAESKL
Experimental: (§3) The IC50 and inhibition percentages (Inhib. %) of the enzymes α-amylase and α-glucosidase were calculated.

[4] = molecular target: proteinase enzyme; assay: Proteinase inhibition (anti-arthritic); assay type: biochemical; design: Proteinase Inhibition (%): concentration or dose not given beside the values; details: mean ± SE, n = 3
Experimental: as §1

[5] = Hydrogen peroxide (H2O2) scavenging; assay type: biochemical; details: mean ± SE, n = 3; for H2O2 (%): inhibition % at 20 µg/mL
Experimental: as §2

[6] = Hydroxyl (OH) radical scavenging; assay type: biochemical; details: mean ± SE, n = 3; for OH (%): inhibition % at 20 µg/mL
Experimental: as §2

[7] = DPPH radical scavenging; assay type: biochemical; details: mean ± SE, n = 3; for DPPH (%): inhibition % at 20 µg/mL
Experimental: as §2

[8] = Iron-reducing power (IRP); assay type: biochemical; details: mean ± SE, n = 3
Experimental: as §2

[9] = Nitric oxide (NO) radical scavenging; assay type: biochemical; details: mean ± SE, n = 3; for NO (%): inhibition % at 20 µg/mL
Experimental: as §2

[10] = ABTS radical scavenging; assay type: biochemical; details: mean ± SE, n = 3; for ABTS (%): inhibition % at 20 µg/mL
Experimental: as §2

[11] = molecular target: α-glucosidase; assay: α-Glucosidase inhibition; assay type: biochemical
Experimental: as §3

[12] = molecular target: acetylcholinesterase (AChE) (Homo sapiens, UniProt P22303); assay: biochemical; details: mean ± SE, n = 3; for IC50: read-out: AChE IC50 (µg/mL) (converted)
Experimental: The inhibition percentage and IC50 of the acetylcholinesterase (AChE) enzyme were measured using the Ellman method.

Chain of acetylcholinesterase (AChE) (P22303 32-614, species assumed): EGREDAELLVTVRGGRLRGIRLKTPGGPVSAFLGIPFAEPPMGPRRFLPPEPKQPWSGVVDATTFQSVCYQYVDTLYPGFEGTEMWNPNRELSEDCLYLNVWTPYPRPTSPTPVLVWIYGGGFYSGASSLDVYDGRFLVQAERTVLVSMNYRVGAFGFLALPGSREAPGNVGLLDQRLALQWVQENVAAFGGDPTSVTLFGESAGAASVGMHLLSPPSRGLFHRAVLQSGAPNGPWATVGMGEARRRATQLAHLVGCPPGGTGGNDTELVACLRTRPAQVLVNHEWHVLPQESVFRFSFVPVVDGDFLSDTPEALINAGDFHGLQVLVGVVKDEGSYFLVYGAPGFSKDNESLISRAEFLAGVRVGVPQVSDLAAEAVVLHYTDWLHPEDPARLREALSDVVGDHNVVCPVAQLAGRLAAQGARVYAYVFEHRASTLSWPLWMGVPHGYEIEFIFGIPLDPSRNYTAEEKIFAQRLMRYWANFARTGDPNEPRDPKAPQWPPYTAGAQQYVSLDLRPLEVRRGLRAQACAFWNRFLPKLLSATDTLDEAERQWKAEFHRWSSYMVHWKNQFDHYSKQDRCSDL

O=c1/c(=C\[C@@H](O)[C@@H](O)[C@H](O)[C@H](O)CO)sc2nc3sc4c(c3c(=O)n12)CCCC4 [8b, (E)-2-((2R,3R,4R,5R)-2,3,4,5,6-pentahydroxyhexylidene)-6,7,8,9-tetrahydro-5H-benzo-[4,5]thieno [2,3-d]thiazolo [3,2-a]pyrimidine-3,5(2H)-dione]
Protein Denaturation Inhibition (%) [1]: 11.80 ± 0.19%
TAC (mg Gallic Acid/g) [2]: 68.01 mg Gallic Acid/g and 68.01 ± 0.78 mg Gallic Acid/g
IC50 [3]: 15.4 µM
inhibition at 20 µg/mL [3]: 61.5 ± 0.74%
Proteinase IC50 [4]: 65.93 ± 2.02 µg/mL
Proteinase Inhibition (%) [4]: 7.63 ± 0.19%
H2O2 scavenging IC50 [5]: 10.28 ± 0.12 µg/mL
OH radical scavenging IC50 [6]: 9.24 ± 0.05 µg/mL
DPPH radical scavenging IC50 [7]: 6.01 ± 0.12 µg/mL
IRP [8]: 60.86 µg/mL and 60.86 ± 0.78 µg/mL
NO radical scavenging IC50 [9]: 6.88 ± 0.16 µg/mL
ABTS radical scavenging IC50 [10]: 4.78 ± 0.05 µg/mL
α-Glucosidase IC50 [11]: 3.85 ± 0.05 µg/mL
inhibition of α-glucosidase ([11]; at 20 µg/mL): 54.78 ± 0.74%
inhibition at 20 µg/mL [12]: 5.19 ± 0.16%
IC50 [12]: 126 µM

O=c1/c(=C\[C@H](O)[C@@H](O)[C@H](O)[C@H](O)CO)sc2nc3sc4c(c3c(=O)n12)CCC4 [7a, (E)-2-((2S,3R,4R,5R)-2,3,4,5,6-pentahydroxyhexylidene)-7,8-dihydro-5H,6H-cyclopenta-[4,5]thieno [2,3-d]thiazolo [3,2-a]pyrimidine-3,5(2H)-dione]
Protein Denaturation Inhibition (%) [1]: 11.62 ± 0.18%
TAC (mg Gallic Acid/g) [2]: 17.44 mg Gallic Acid/g and 17.44 ± 0.22 mg Gallic Acid/g
inhibition at 20 µg/mL [3]: 13.4 ± 0.21%
Proteinase IC50 [4]: 62.33 ± 1.77 µg/mL
Proteinase Inhibition (%) [4]: 7.45 ± 0.18%
H2O2 (%) [5]: 8.07 ± 0.21%
H2O2 scavenging IC50 [5]: 73.10 ± 1.67 µg/mL
OH (%) [6]: 7.21 ± 0.19%
OH radical scavenging IC50 [6]: 65.77 ± 2.12 µg/mL
DPPH (%) [7]: 14.04 ± 0.22%
IRP [8]: 10.29 µg/mL and 10.29 ± 0.22 µg/mL
NO (%) [9]: 8.29 ± 0.22%
NO radical scavenging IC50 [9]: 48.89 ± 0.78 µg/mL
ABTS (%) [10]: 17.19 ± 0.22%
ABTS radical scavenging IC50 [10]: 18.83 ± 0.22 µg/mL
α-Glucosidase IC50 [11]: 31.92 ± 0.89 µg/mL
inhibition at 20 µg/mL [12]: 5.75 ± 0.18%
IC50 [12]: 117 µM

O=c1/c(=C\[C@H](O)[C@@H](O)[C@@H](O)[C@H](O)CO)sc2nc3sc4c(c3c(=O)n12)CCC4 [7c, (E)-2-((2S,3R,4S,5R)-2,3,4,5,6-pentahydroxyhexylidene)-7,8-dihydro-5H,6H-cyclopenta [4,5]thieno [2,3-d]thiazolo [3,2-a]-pyrimidine-3,5(2H)-dione]
Protein Denaturation Inhibition (%) [1]: 14.08 ± 0.21%
TAC (mg Gallic Acid/g) [2]: 20.40 ± 0.26 mg Gallic Acid/g
inhibition at 20 µg/mL [3]: 16.2 ± 0.24%
Proteinase IC50 [4]: 46.88 ± 1.21 µg/mL
Proteinase Inhibition (%) [4]: 9.91 ± 0.21%
H2O2 (%) [5]: 10.96 ± 0.25%
H2O2 scavenging IC50 [5]: 53.83 ± 1.05 µg/mL
OH (%) [6]: 9.78 ± 0.22%
OH radical scavenging IC50 [6]: 48.42 ± 1.40 µg/mL
DPPH (%) [7]: 17.00 ± 0.26%
DPPH radical scavenging IC50 [7]: 22.84 ± 0.23 µg/mL
IRP [8]: 13.25 ± 0.26 µg/mL
NO (%) [9]: 11.25 ± 0.26%
NO radical scavenging IC50 [9]: 36.00 ± 0.45 µg/mL
ABTS (%) [10]: 20.15 ± 0.26%
ABTS radical scavenging IC50 [10]: 16.06 ± 0.19 µg/mL
α-Glucosidase IC50 [11]: 22.37 ± 0.53 µg/mL
inhibition at 20 µg/mL [12]: 5.87 ± 0.19%
IC50 [12]: 115 µM

O=c1/c(=C\[C@H](O)[C@@H](O)[C@H](O)CO)sc2nc3sc4c(c3c(=O)n12)CCCC4 [8d, (E)-2-((2S,3R,4R)-2,3,4,5-tetrahydroxypentylidene)-6,7,8,9-tetrahydro-5H-benzo [4,5]thieno [2,3-d]thiazolo [3,2-a]-pyrimidine-3,5(2H)-dione]
Protein Denaturation Inhibition (%) [1]: 11.28 ± 0.18%
TAC (mg Gallic Acid/g) [2]: 17.02 ± 0.21 mg Gallic Acid/g
inhibition at 20 µg/mL [3]: 13 ± 0.2%
Proteinase IC50 [4]: 65.40 ± 1.90 µg/mL
Proteinase Inhibition (%) [4]: 7.11 ± 0.18%
H2O2 (%) [5]: 7.66 ± 0.21%
H2O2 scavenging IC50 [5]: 77.03 ± 1.82 µg/mL
OH (%) [6]: 6.84 ± 0.19%
OH radical scavenging IC50 [6]: 69.29 ± 2.28 µg/mL
DPPH (%) [7]: 13.62 ± 0.21%
DPPH radical scavenging IC50 [7]: 28.53 ± 0.30 µg/mL
IRP [8]: 9.87 ± 0.21 µg/mL
NO (%) [9]: 7.87 ± 0.21%
NO radical scavenging IC50 [9]: 51.52 ± 0.85 µg/mL
ABTS (%) [10]: 16.77 ± 0.21%
ABTS radical scavenging IC50 [10]: 19.31 ± 0.23 µg/mL
α-Glucosidase IC50 [11]: 33.99 ± 0.98 µg/mL
inhibition at 20 µg/mL [12]: 5.61 ± 0.18%
IC50 [12]: 125 µM

O=c1/c(=C\[C@H](O)[C@@H](O)[C@H](O)CO)sc2nc3sc4c(c3c(=O)n12)CCC4 [7d, (E)-2-((2S,3R,4R)-2,3,4,5-tetrahydroxypentylidene)-7,8-dihydro-5H,6H-cyclopenta [4,5]thieno [2,3-d]thiazolo [3,2-a]-pyrimidine-3,5(2H)-dione]
Protein Denaturation Inhibition (%) [1]: 13.82 ± 0.19%
TAC (mg Gallic Acid/g) [2]: 20.09 ± 0.23 mg Gallic Acid/g
inhibition at 20 µg/mL [3]: 15.9 ± 0.22%
Proteinase IC50 [4]: 48.10 ± 0.46 µg/mL
Proteinase Inhibition (%) [4]: 9.65 ± 0.19%
H2O2 (%) [5]: 10.65 ± 0.22%
H2O2 scavenging IC50 [5]: 55.36 ± 1.03 µg/mL
OH (%) [6]: 9.51 ± 0.20%
OH radical scavenging IC50 [6]: 49.77 ± 0.65 µg/mL
DPPH (%) [7]: 16.69 ± 0.23%
DPPH radical scavenging IC50 [7]: 23.28 ± 0.49 µg/mL
IRP [8]: 12.94 ± 0.23 µg/mL
NO (%) [9]: 10.94 ± 0.23%
NO radical scavenging IC50 [9]: 37.06 ± 1.13 µg/mL
ABTS (%) [10]: 19.84 ± 0.23%
ABTS radical scavenging IC50 [10]: 16.31 ± 0.16 µg/mL
α-Glucosidase IC50 [11]: 23.09 ± 0.41 µg/mL
inhibition at 20 µg/mL [12]: 4.4 ± 0.14%
IC50 [12]: 165 µM
